Structures are written as SMILES.

As usually defined, the chromatographic logP is a lipophilicity value derived from retention on a column.

Tested on in one data set: not listed separately
The data set can be described thus: logP determination by HPLC (EEC Directive 79/831 Annex V. A8). It is filed as physicochemical. Conditions: gradient method, acetonitrile/0,1% aqueous phosphoric acid. On the procedure: The logP values were determined in accordance with EEC Directive 79/831 Annex V. A8 by HPLC (Gradient method, acetonitrile/0,1% aqueous phosphoric acid)
Molecule `Cc1noc(C)c1S(=O)(=O)n1c(C)c(Br)c(Br)c1C#N` [Example 1, 3,4-dibromo-1-[(3,5-dimethyl-4-isoxazolyl)-sulfonyl]-5-methyl-1H-pyrrole-2-carbonitrile] displayed a chromatographic logP of 3.62. The same measure, in the same setting: in the case of `Cc1noc(C)c1S(=O)(=O)n1cc(Cl)c(Cl)c1C#N` [Example 11] it was 3.13.

Molecule `Cc1noc(C)c1S(=O)(=O)n1c(Br)c(Br)c(Br)c1C#N` [Example 3] gave a chromatographic logP of 3.58.

For a further data set, the system named is Phytophthora infestans.
Experiment: not given
Conditions: tomato plants, protective spray, application rate 50 g/ha, evaluation three days after inoculation; 100% = no infection. It is filed as in vivo.
In turn, `Cc1noc(C)c1S(=O)(=O)n1c(Br)c(Br)c(Br)c1C#N` [drawing 9] had an Efficacy in % of 98%. With `Cc1noc(C)c1S(=O)(=O)n1cc(Cl)c(Cl)c1C#N` [drawing 10], the Efficacy in % is given as 95%. Same read-out and setting: next, `Cc1noc(C)c1S(=O)(=O)n1cc(Cl)c(Cl)c1C#N` [drawing 11]: 94%.

For the origin of these results see US20040077880A1 (priority 2000, published 2004).
